Results taken from patent US8309577B2, “Quinuclidine compounds as α-7 nicotinic acetylcholine receptor ligands” (Bristol-Myers Squibb Company, priority 2008, dated 2012).

What follows are compounds tested against T1, α-7 nicotinic acetylcholine receptor channel expressed in HEK 293 cells (Rattus norvegicus, UniProt Q05941) (assay: Ca2+-sensitive fluorescence-based FLIPR assay, α7 nicotinic ACh receptor channel function (agonist)). Conditions: FLIPR α7 (EC50, nM), Table 1; HEK 293 cells, agonist Ca2+ flux.
T1 construct: expressed in transfected cells
Format: cell-based
In short: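 Potency and efficacy derived from kinetic FLIPR Ca²⁺-flux fluorescence, recorded 3 min after compound addition in Hanks buffer following a 10 s baseline.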

T1 sequence (Q05941 23-502): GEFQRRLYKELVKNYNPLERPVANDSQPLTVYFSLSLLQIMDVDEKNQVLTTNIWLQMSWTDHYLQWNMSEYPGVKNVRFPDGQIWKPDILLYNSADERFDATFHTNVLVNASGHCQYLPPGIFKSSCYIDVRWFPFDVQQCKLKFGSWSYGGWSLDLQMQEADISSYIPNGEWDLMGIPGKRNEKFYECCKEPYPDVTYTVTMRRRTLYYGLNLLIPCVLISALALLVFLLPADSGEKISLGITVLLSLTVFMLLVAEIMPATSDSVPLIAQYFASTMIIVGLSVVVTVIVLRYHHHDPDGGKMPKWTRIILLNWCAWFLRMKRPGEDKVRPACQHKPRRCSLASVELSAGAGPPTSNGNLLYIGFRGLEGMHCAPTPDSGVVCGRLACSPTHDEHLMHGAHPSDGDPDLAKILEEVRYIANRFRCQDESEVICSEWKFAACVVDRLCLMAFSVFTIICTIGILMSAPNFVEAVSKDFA

Going from `CC(=O)Nc1ccc2nc(NC3=NCC4(CN5CCC4CC5)O3)sc2c1` (stereo not drawn) [Example 90] to `Cc1cc(Cl)cc2sc(NC3=NC[C@@]4(CN5CCC4CC5)O3)nc12` [Example 174], the EC50 rises from 130 nM to 245 nM (1.9-fold). The first is the more potent here.

Compared with `Cc1cc(Cl)c2nc(NC3=NCC4(CN5CCC4CC5)O3)sc2c1` (stereo not drawn) [Example 103], `CC(C)(C)c1csc(NC2=NCC3(CN4CCC3CC4)O2)n1` (stereo not drawn) [Example 110] is 1.6-fold higher in EC50: 280 nM for the first, 450 nM for the second. The first is the more potent here.

`COc1ccn2nc(NC3=NC[C@@]4(CN5CCC4CC5)O3)nc2c1` [Example 125] and `COc1nc(NC2=NC[C@@]3(CN4CCC3CC4)O2)ncc1Br` [Example 178] are the same in EC50: 17 nM for the first, 17 nM for the second.

`c1ccc2nc(NC3=NC[C@@]4(CN5CCC4CC5)O3)ccc2c1` [Example 139] and `c1ccc2c(NC3=NC[C@@]4(CN5CCC4CC5)O3)n[nH]c2c1` [Example 165] are within 1.5-fold of each other in EC50: 16 nM for the first, 13 nM for the second.

Going from `Fc1cccc2[nH]nc(NC3=NC[C@@]4(CN5CCC4CC5)O3)c12` [Example 158] to `COc1ccc(-c2ccnc(NC3=NC[C@@]4(CN5CCC4CC5)O3)n2)cc1` [Example 166], the EC50 falls from 135 nM to 11 nM (12-fold).

Same assay, conditions: FLIPR α7 activity rating (EC50, nM), Table 1; HEK 293 cells, agonist Ca2+ flux

`O=C1Cc2cc(NC3=NCC4(CN5CCC4CC5)O3)ccc2N1` (stereo not drawn) [Example 86] and `Brc1cc(NC2=NC[C@@]3(CN4CCC3CC4)O2)ccn1` [Example 154] fall in the same range of EC50: 1000 to 100000 nM for the first, 1000 to 100000 nM for the second.

`c1ccn2nc(NC3=NCC4(CN5CCC4CC5)O3)nc2c1` (stereo not drawn) [Example 87] and `Cc1ccn2nc(NC3=NCC4(CN5CCC4CC5)O3)nc2c1` (stereo not drawn) [Example 94] cannot be ordered by EC50: less than 100 nM for the first, less than 100 nM for the second.

`c1ccc(-c2csc(NC3=NCC4(CN5CCC4CC5)O3)n2)nc1` (stereo not drawn) [Example 88] and `COc1cccc(-c2csc(NC3=NC[C@@]4(CN5CCC4CC5)O3)n2)c1` [Example 173] fall in the same range of EC50: 100 to 1000 nM for the first, 100 to 1000 nM for the second.

Compared with `Cc1cc(C)c2nc(NC3=NCC4(CN5CCC4CC5)O3)sc2c1` (stereo not drawn) [Example 89], `Cc1cc(Cl)c2nc(NC3=NCC4(CN5CCC4CC5)O3)sc2c1` (stereo not drawn) [Example 103] is higher in EC50: less than 100 nM for the first, 100 to 1000 nM for the second.

`CC(=O)Nc1ccc2nc(NC3=NCC4(CN5CCC4CC5)O3)sc2c1` (stereo not drawn) [Example 90] and `CCc1ccc2nc(NC3=NCC4(CN5CCC4CC5)O3)sc2c1` (stereo not drawn) [Example 91] fall in the same range of EC50: 100 to 1000 nM for the first, 100 to 1000 nM for the second.

Compared with `Cc1cnc(NC2=NCC3(CN4CCC3CC4)O2)s1` (stereo not drawn) [Example 92], `Cc1csc(NC2=NCC3(CN4CCC3CC4)O2)n1` (stereo not drawn) [Example 109] is higher in EC50: less than 100 nM for the first, 100 to 1000 nM for the second.

First: Cn1c(-c2ccccc2)cnc1NC1=NCC2(CN3CCC2CC3)O1 (stereo not drawn) [Example 96]
Second: Cc1cc(-c2ccccc2)nc(NC2=NC[C@@]3(CN4CCC3CC4)O2)n1 [Example 180]
The EC50 of the first is higher: 1000 to 100000 nM for the first, 100 to 1000 nM for the second. The second is the more potent here.

Compared with `Cc1cccn2nc(NC3=NCC4(CN5CCC4CC5)O3)nc12` (stereo not drawn) [Example 97], `COc1ccn2nc(NC3=NC[C@@]4(CN5CCC4CC5)O3)nc2c1` [Example 125] is lower in EC50: 100 to 1000 nM for the first, less than 100 nM for the second. The second is the more potent here.

First: Cc1nc(NC2=NCC3(CN4CCC3CC4)O2)sc1C(=O)N(C)C (stereo not drawn) [Example 98]
Second: Cc1ccc(C)c2sc(NC3=NCC4(CN5CCC4CC5)O3)nc12 (stereo not drawn) [Example 102]
The EC50 of the first is higher: 1000 to 100000 nM for the first, less than 100 nM for the second. The second is the more potent here.

`FC(F)Oc1ccc2nc(NC3=NCC4(CN5CCC4CC5)O3)sc2c1` (stereo not drawn) [Example 104] and `Cc1cc(Cl)cc2sc(NC3=NC[C@@]4(CN5CCC4CC5)O3)nc12` [Example 174] fall in the same range of EC50: 100 to 1000 nM for the first, 100 to 1000 nM for the second.

`c1ccc(Cc2cnc(NC3=NCC4(CN5CCC4CC5)O3)s2)cc1` (stereo not drawn) [Example 105] and `c1ccc2c(NC3=NC[C@@]4(CN5CCC4CC5)O3)nccc2c1` [Example 146] fall in the same range of EC50: 100 to 1000 nM for the first, 100 to 1000 nM for the second.

Compared with `Brc1cnc(NC2=NCC3(CN4CCC3CC4)O2)cn1` (stereo not drawn) [Example 107], `Brc1cnc(NC2=NC[C@@]3(CN4CCC3CC4)O2)cn1` [Example 136] is lower in EC50: 100 to 1000 nM for the first, less than 100 nM for the second. The second is the more potent here.

`CC(C)(C)c1csc(NC2=NCC3(CN4CCC3CC4)O2)n1` (stereo not drawn) [Example 110] and `Cc1cc(C)nc(NC2=NC[C@@]3(CN4CCC3CC4)O2)n1` [Example 176] fall in the same range of EC50: 100 to 1000 nM for the first, 100 to 1000 nM for the second.

Compared with `COc1ccc(C)c2nc(NC3=NCC4(CN5CCC4CC5)O3)sc12` (stereo not drawn) [Example 112], `COc1ccc(-c2nc(NC3=NC[C@@]4(CN5CCC4CC5)O3)sc2C)cc1` [Example 129] is higher in EC50: less than 100 nM for the first, 100 to 1000 nM for the second. The first is the more potent here.

`c1ccc2c(NC3=NCC4(CN5CCC4CC5)O3)n[nH]c2c1` (stereo not drawn) [Example 113] and `c1ccc2c(NC3=NC[C@@]4(CN5CCC4CC5)O3)n[nH]c2c1` [Example 165] cannot be ordered by EC50: less than 100 nM for the first, less than 100 nM for the second.

`Clc1cncc(NC2=NC[C@@]3(CN4CCC3CC4)O2)n1` [Example 127] and `N#Cc1cnc(NC2=NC[C@@]3(CN4CCC3CC4)O2)cn1` [Example 148] fall in the same range of EC50: 1000 to 100000 nM for the first, 1000 to 100000 nM for the second.

Compared with `COc1nc(Br)cnc1NC1=NC[C@@]2(CN3CCC2CC3)O1` [Example 130], `COc1nc(NC2=NC[C@@]3(CN4CCC3CC4)O2)ncc1Br` [Example 178] is lower in EC50: 100 to 1000 nM for the first, less than 100 nM for the second.

`Clc1cccc2[nH]nc(NC3=NC[C@@]4(CN5CCC4CC5)O3)c12` [Example 132] and `Fc1cccc2[nH]nc(NC3=NC[C@@]4(CN5CCC4CC5)O3)c12` [Example 158] fall in the same range of EC50: 100 to 1000 nM for the first, 100 to 1000 nM for the second.

`Brc1ccc2c(NC3=NC[C@@]4(CN5CCC4CC5)O3)n[nH]c2c1` [Example 133] and `Clc1ccc2c(NC3=NC[C@@]4(CN5CCC4CC5)O3)n[nH]c2c1` [Example 134] cannot be ordered by EC50: less than 100 nM for the first, less than 100 nM for the second.

First: COc1ccc2c(NC3=NC[C@@]4(CN5CCC4CC5)O3)n[nH]c2c1 [Example 135]
Second: FC(F)(F)c1ccc2c(NC3=NC[C@@]4(CN5CCC4CC5)O3)n[nH]c2c1 [Example 164]
The EC50 of the first is lower: less than 100 nM for the first, 100 to 1000 nM for the second. The first is the more potent here.

`c1cncc(-c2ncc(NC3=NC[C@@]4(CN5CCC4CC5)O3)cn2)c1` [Example 138] and `c1cc(NC2=NC[C@@]3(CN4CCC3CC4)O2)cnn1` [Example 160] fall in the same range of EC50: 1000 to 100000 nM for the first, 1000 to 100000 nM for the second.

First: c1ccc2nc(NC3=NC[C@@]4(CN5CCC4CC5)O3)ccc2c1 [Example 139]
Second: Fc1ccc2nc(NC3=NC[C@@]4(CN5CCC4CC5)O3)ccc2c1 [Example 140]
The EC50 of the first is lower: less than 100 nM for the first, 100 to 1000 nM for the second. The first is the more potent here.

Compared with `c1csc(-c2cc(NC3=NC[C@@]4(CN5CCC4CC5)O3)n[nH]2)c1` [Example 143], `COc1ccc(-c2cc(NC3=NC[C@@]4(CN5CCC4CC5)O3)n[nH]2)cc1` [Example 162] is higher in EC50: 100 to 1000 nM for the first, 1000 to 100000 nM for the second. The first is the more potent here.

`Cc1cc(C)c2c(NC3=NC[C@@]4(CN5CCC4CC5)O3)nsc2n1` [Example 145] and `Cc1sc2ncnc(NC3=NC[C@@]4(CN5CCC4CC5)O3)c2c1C` [Example 167] fall in the same range of EC50: 1000 to 100000 nM for the first, 1000 to 100000 nM for the second.

`c1ccc2c(NC3=NC[C@@]4(CN5CCC4CC5)O3)ncnc2c1` [Example 147] and `Brc1cccc(NC2=NC[C@@]3(CN4CCC3CC4)O2)n1` [Example 155] fall in the same range of EC50: 100 to 1000 nM for the first, 100 to 1000 nM for the second.

`COc1cc(NC2=NC[C@@]3(CN4CCC3CC4)O2)nc(OC)n1` [Example 150] and `COc1cc(C)nc(NC2=NC[C@@]3(CN4CCC3CC4)O2)n1` [Example 172] fall in the same range of EC50: 100 to 1000 nM for the first, 100 to 1000 nM for the second.

First: COc1ccc(-c2cnc(NC3=NC[C@@]4(CN5CCC4CC5)O3)nc2)cc1 [Example 151]
Second: COc1ccc(-c2ccnc(NC3=NC[C@@]4(CN5CCC4CC5)O3)n2)cc1 [Example 166]
The EC50 of the first is higher: 100 to 1000 nM for the first, less than 100 nM for the second. The second is the more potent here.

First: c1ccc2c(c1)CCc1cnc(NC3=NC[C@@]4(CN5CCC4CC5)O3)nc1-2 [Example 153]
Second: Brc1ccc2nc(NC3=NC[C@@]4(CN5CCC4CC5)O3)ncc2c1 [Example 168]
The EC50 of the first is higher: 100 to 1000 nM for the first, less than 100 nM for the second.

`Cc1ccc2nc(NC3=NC[C@@]4(CN5CCC4CC5)O3)ccc2c1` [Example 157] and `COc1ccc2nc(NC3=NC[C@@]4(CN5CCC4CC5)O3)c(C)cc2c1` [Example 179] fall in the same range of EC50: 100 to 1000 nM for the first, 100 to 1000 nM for the second.

`Fc1ccc2[nH]nc(NC3=NC[C@@]4(CN5CCC4CC5)O3)c2c1` [Example 159] and `FC(F)(F)c1ccc2[nH]nc(NC3=NC[C@@]4(CN5CCC4CC5)O3)c2c1` [Example 163] cannot be ordered by EC50: less than 100 nM for the first, less than 100 nM for the second.

First: Cc1oc2ncnc(NC3=NC[C@@]4(CN5CCC4CC5)O3)c2c1C [Example 161]
Second: Cc1nnc(NC2=NC[C@@]3(CN4CCC3CC4)O2)nc1C [Example 182]
The EC50 of the first is higher: 1000 to 100000 nM for the first, 100 to 1000 nM for the second. The second is the more potent here.

`Cc1nc(NC2=NC[C@@]3(CN4CCC3CC4)O2)nc(C)c1Br` [Example 171] and `c1ccc2c(c1)CCc1cnc(NC3=NC[C@@]4(CN5CCC4CC5)O3)nc1-2` [Example 177] cannot be ordered by EC50: less than 100 nM for the first, less than 100 nM for the second.

For `FC(F)(F)Oc1ccc2[nH]nc(NC3=NC[C@@]4(CN5CCC4CC5)O3)c2c1` [Example 183], the EC50 was less than 100 nM.
